# Experimental data: patent US20190280220A1, “METAL COMPLEXES” (Merck Patent GmbH, priority 2016, published 2019)
# Assay: Comparison of solubility in organic solvents at room temperature
# Format: physicochemical
# Source text: The compounds of the invention have very good solubility in nonpolar solvents (aromatics, alkylaromatics, cyclohexane) and dipolar aprotic solvents (ketones, ethers, esters, amides, sulfones, sulfoxides etc., such as acetone, butanone, cyclohexanone, di-n-butyl ether, THF, dioxane, 3-phenoxytoluene, anisole, ethyl acetate, butyl acetate, hexyl acetate, methyl benzoate, DMF, DMAC, NMP, DMSO, dimethyl sulfone, sulfolane, etc.) and mixtures thereof, and form solutions that are stable for a long period of time. Preferred concentrations are 5-500 mg/ml, more preferably 20-200 mg/ml.
Compound,"Solubility, 3-Phenoxytoluene [mg/mL]","Solubility, DMF [mg/mL]","Solubility, Cyclohexane [mg/mL]","Solubility, n-Butyl benzoate [mg/mL]","Solubility, Toluene [mg/mL]"
c1ccc(-c2c(-c3ccccc3)c(-c3ccccc3)c(-c3ccc(-c4cc(-c5ccccn5)[c]5cc4-c4ccccc4-c4cc6cc(c4)-c4ccccc4-c4c[c](c(-c7ccccn7)cc4-c4ccc(-c7c(-c8ccccc8)c(-c8ccccc8)c(-c8ccccc8)c(-c8ccccc8)c7-c7ccccc7)cc4)[Ir]5[c]4cc(c(-c5ccc(-c7c(-c8ccccc8)c(-c8ccccc8)c(-c8ccccc8)c(-c8ccccc8)c7-c7ccccc7)cc5)cc4-c4ccccn4)-c4ccccc4-6)cc3)c(-c3ccccc3)c2-c2ccccc2)cc1 [Ir(530)],>150,>70,>5,>80,>100
c1ccc(-c2c(-c3ccccc3)c(-c3ccccc3)c(-c3cc[c]([Ir]([c]4ccc(-c5c(-c6ccccc6)c(-c6ccccc6)c(-c6ccccc6)c(-c6ccccc6)c5-c5ccccc5)cc4-c4ccccn4)[c]4ccc(-c5c(-c6ccccc6)c(-c6ccccc6)c(-c6ccccc6)c(-c6ccccc6)c5-c5ccccc5)cc4-c4ccccn4)c(-c4ccccn4)c3)c(-c3ccccc3)c2-c2ccccc2)cc1 [Ir(500)],>150,>70,>5,>80,>100
